Experimental data published in patent publication US12723018B2, “Cinnamoyl amino acid compound and use thereof” (CHINA PHARMACEUTICAL UNIVERSITY, priority 2020, dated 2026).

Columns and labels:
[1] = Physicochemical properties: solubility in solvents
[2] = target: T1, iNOS (Mus musculus, UniProt P29477); experiment: In vitro iNOS inhibitory effect (iNOS activity detection kit) in LPS-stimulated BV-2 cells; assay type: cell-based; settings: compound 0.01-10 μM added 4 hours before LPS 500 ng/mL for 24 hours, FIG. 1, read-out: iNOS inhibition IC50
T1 sequence (P29477 1-1144): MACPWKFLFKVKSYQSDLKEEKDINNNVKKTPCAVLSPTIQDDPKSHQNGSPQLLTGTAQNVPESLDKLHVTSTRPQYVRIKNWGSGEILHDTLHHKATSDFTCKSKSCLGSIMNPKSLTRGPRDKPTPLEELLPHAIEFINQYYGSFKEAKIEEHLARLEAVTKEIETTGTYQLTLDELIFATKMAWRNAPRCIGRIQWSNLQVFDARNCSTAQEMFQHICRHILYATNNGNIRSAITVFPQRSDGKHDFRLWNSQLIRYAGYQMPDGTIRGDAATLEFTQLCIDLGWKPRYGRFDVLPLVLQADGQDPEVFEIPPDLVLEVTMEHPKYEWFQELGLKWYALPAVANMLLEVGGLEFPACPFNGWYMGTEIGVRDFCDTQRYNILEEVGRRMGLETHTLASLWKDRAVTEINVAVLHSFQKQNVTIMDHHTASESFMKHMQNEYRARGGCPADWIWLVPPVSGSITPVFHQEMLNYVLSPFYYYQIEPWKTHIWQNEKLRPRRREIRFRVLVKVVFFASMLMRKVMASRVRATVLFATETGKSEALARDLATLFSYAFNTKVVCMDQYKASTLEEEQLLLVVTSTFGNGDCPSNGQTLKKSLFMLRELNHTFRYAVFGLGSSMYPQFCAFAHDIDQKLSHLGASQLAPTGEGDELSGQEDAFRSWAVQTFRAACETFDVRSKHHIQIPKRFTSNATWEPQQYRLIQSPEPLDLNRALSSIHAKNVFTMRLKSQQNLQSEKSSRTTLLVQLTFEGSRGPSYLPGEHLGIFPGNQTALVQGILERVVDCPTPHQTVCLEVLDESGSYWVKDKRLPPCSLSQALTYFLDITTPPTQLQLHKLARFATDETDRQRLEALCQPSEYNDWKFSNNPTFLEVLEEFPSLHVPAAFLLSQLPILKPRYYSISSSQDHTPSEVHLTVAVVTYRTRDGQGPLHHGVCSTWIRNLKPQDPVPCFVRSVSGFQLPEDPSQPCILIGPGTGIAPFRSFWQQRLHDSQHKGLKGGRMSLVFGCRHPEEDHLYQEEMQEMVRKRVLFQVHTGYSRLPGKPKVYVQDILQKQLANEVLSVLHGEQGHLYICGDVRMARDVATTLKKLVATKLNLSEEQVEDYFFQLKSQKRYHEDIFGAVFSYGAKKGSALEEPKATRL
Description: Experimental materials: BV-2 cells (purchased from Shanghai Cell Bank, Chinese Academy of Sciences), DMEM cell culture fluid (Sigma), fetal bovine serum (Gibico), 96-well cell culture plate (Corning), DMSO (Sigma), LPS (Sigma), iNOS activity detection kit (Beyotime), test drug 4-trifluoromethyl-cinnamoyl-4-fluoro-L-phenylalanine prepared in Example 1, and microplate reader.
Then according to the group, the drug or blank culture fluid was added to the corresponding group for culture for 4 hours. Finally, except the blank group, each group was stimulated with LPS with a final concentration of 500 ng/mL for 24 hours. The iNOS activity assay was performed according to the requirements of the iNOS detection kit.

[3] = tested on: MPTP-induced Parkinsonian mice; experiment: MPTP-induced Parkinsonian mouse rota-rod experiment; assay type: in vivo, C57BL/6 male mice; settings: 2 mg/kg by gavage for 12 days before MPTP (20 mg/kg i.p. x4); tested 4 h, 24 h, 48 h, 72 h after modeling; FIG. 2
From the text: Experimental materials: 10-week-old C57BL/6 male mice (Nanjing Qinglongshan Farm), rota-rod treadmill (Beijing Zhongshi Technology), levodopa and MPTP (Sigma), test drug 4-trifluoromethyl-cinnamoyl-4-fluoro-L-phenylalanine prepared in Example 1 (Compound 2 shown), and test drug 4-hydroxy-3-methoxycinnamoyl-L-tyrosine (Compound 1 shown).
Experimental groups: Mice were randomly divided into 5 groups, 10 mice in each group: a blank group, a model group, a 4-hydroxy-3-methoxycinnamoyl-L-tyrosine (Compound 1 shown, 2 mg/kg) group, a 4-trifluoromethyl-cinnamoyl-4-fluoro-L-phenylalanine (Compound 2 shown, 2 mg/kg) group and a levodopa (15 mg/kg) group. Pre-dosing by gavage was carried out for 12 consecutive days. The blank group and the model group were given equal doses of PBS, and modeling was performed on the 13th day. The model group and the drug group were intraperitoneally injected with MPTP (20 mg/kg), once every 2 h, for 4 consecutive injections. After modeling, behavioral tests were carried out. The behavioral performance of mice was tested with a YLS-4C mouse rota-rod treadmill at 4 h, 24 h, 48 h, and 72 h after MPTP modeling. The time from the start of rotation of the rota-rod to the time leaving the rota-rod of the test mice was taken as the latency. The test time was 180 s, and each mouse was tested 3 times to obtain an average value. […]

[4] = tested on: MCAO ischemia-reperfusion rats; experiment: Rat ischemia-reperfusion (MCAO) in-vivo model with TTC staining; parameters: species or system Male SD rats; settings: 2 mg/kg by gavage daily, FIG. 3
From the text: Experimental materials: Male SD rats, weighing 250-300 g, provided by the Model Animal Research Center of Nanjing University and raised in the Experimental Animal Center of China Pharmaceutical University; triphenyl tetrazolium chloride (TTC) and butyphthalide purchased from Sigma; test drug 4-trifluoromethyl-cinnamoyl-4-fluoro-L-phenylalanine prepared in Example 1 (Compound 2 shown), and test drug 4-hydroxy-3-methoxycinnamoyl-L-tyrosine (Compound 1 shown).
Experimental method: The rats were randomly divided into 5 groups, i.e., a blank group, a model group (MCAO group), an MCAO+4-hydroxy-3-methoxycinnamoyl-L-tyrosine (Compound 1 shown, 2 mg/kg) group, an MCAO+4-trifluoromethyl-cinnamoyl-4-fluoro-L-phenylalanine (Compound 2 shown, 2 mg/kg) group and an MCAO+positive drug butyphthalide (5 mg/kg) group. After successful modeling, administration of different doses of compounds by gavage was carried out every day for 15 consecutive days. After the administration, brains were harvested, subjected to TTC staining, and photographed and recorded.
The effect is better than that of the positive drug and 4-hydroxy-3-methoxycinnamoyl-L-tyrosine (Compound 1 shown).

Which solubility ([1]; dichloromethane) does the source give for `O=C(/C=C/c1ccc(C(F)(F)F)cc1)N[C@@H](Cc1ccc(F)cc1)C(=O)O` [Compound 2, 4-trifluoromethyl-cinnamoyl-4-fluoro-L-phenylalanine] here?
The solubility was “soluble”.

And the solubility ([1]; methanol, acetone, ethyl acetate)?
Its solubility is “easily soluble”.

What about the solubility ([1]; petroleum ether, water) of the same compound?
Its solubility is “insoluble”.

And the IC50 [2]?
The IC50 was 110 nM.

What about the “dyskinesia of the Parkinsonian mice (rota-rod)” value [3] of the same compound?
The value was “effectively alleviate the dyskinesia”.

What about the “running time of the Parkinsonian mice (rota-rod latency)” value [3] of the same compound?
Its value is “increase the running time”.

What about the “size of cerebral infarction caused by ischemia reperfusion (TTC staining)” value [4] of the same compound?
The value was “effectively reduce the increase in the size of cerebral infarction”.
